This note sets out measurements from patent publication US11352604B2, “Method of making cardiomyocytes from human pluripotent cells” (Wisconsin Alumni Research Foundation, priority 2016, dated 2022).

Common to all, as to format: cell-based, human
Experiment [1] concerns day 5 cardiac progenitor cells. The experiment in a line: Propidium iodide cell cycle flow cytometry. The settings on record: day 5 cardiac progenitor cells. The protocol: Propidium iodide staining was performed on ethanol-fixed cells of the 19-9-11 iPS cell line with a low flow rate and linear mode fluorescence according to a previously published protocol (Darzynkiewicz and Juan, 2001).

Experiment [2] has as its system hPSC-CMs. The experiment in a line: Cardiomyocyte yield from dissociated and replated progenitors. The note with it: primed vs untreated. The protocol: For dissociation of day 5 cells (for destructive analyses or live cell replating experiments), progenitors were dissociated with Versene (Thermo Fisher Scientific) for 10 minutes at 37° C., pipetted up and down 40 times, and then neutralized 1:1 v/v versene solution with “K20” medium (DMEM/F12 with 1×NEAA, 1× Glutamine, 0.1 mM (3-mercaptoethanol, and 20% Knockout Serum Replacer by volume, all Thermo Fisher Scientific). For destructive analyses, pellets were made by centrifugation at 1.1×1000 g for 5 minutes, aspiration of medium supernatant, snap-freezing in liquid nitrogen, and kept at −80° C. for until pellet lysis for DNA, protein, or RNA isolation.
For replating of progenitors and microtissue formation, after neutralization and cell counting, 0.8 million day-5 progenitors per well were spun down at 100×g as above and resuspended and plated in 1 mL K20 with 10 μM Y-27632 ROCK-inhibitor (Tocris) into Synthemax® II-SC coated 12 well plates (Corning). Media was then changed daily in 2 mL of “K2” (same formulation as K20 above, but with just 2% Knockout Serum Replacer), and changed daily. Differentiating hPSC-CMs from replated progenitors in this protocol beat by day 8 to 12.

In experiment [3] the test system is cTnT isoforms. The experiment in a line: Top-down mass spectrometry of cTnT isoforms (adult to fetal AUC ratio). The protocol: Freshly isolated CMs from the H9-cTnT-GFP (FIG. 1) or 19-9-11 (FIG. 2) hPSC cell lines were washed with Ca^2+-free DPBS and centrifuged at 1,100 g for 5 minutes (min) and the wash solvent was removed. The cells were first homogenized in 50 μl HEPES solution (25 mM HEPES, pH 7.4, 2.5 mM EDTA, 100 mM NaF, 1 mM DTT, 10 mM L-methionine, 1 mM PMSF, 1 mM Na3VO4, protease inhibitor (Abcam) and phosphatase inhibitors). The homogenates were centrifuged at 17,000 g for 20 min and the HEPES extract containing predominately cytosolic proteins was collected. The remaining pellets were homogenized in 40 μl trifluoroacetic acid (TFA) solution (1% TFA, 5 mM tris(2-carboxyethyl)phosphine, 5 mM L-methionine) and centrifuged at 17,000 g for 20 min. The TFA extract containing predominantly the sarcomeric proteins was collected. Bradford protein assays were performed to determine the protein concentration. The sarcomeric protein-enriched extracts were diluted to 100 ng/μl for Liquid chromatography (LC)-MS analysis.
500 ng of each sarcomeric protein-enriched extract was injected to a home-packed reverse phase chromatography (RPC) column (PLRP-S, 10 μm particle size, 1000 A pore size, 500 μm inner diameter, 25 cm long), and the proteins were separated with a gradient of 5-95% mobile phase B (0.1% formic acid in 50:50 acetonitrile:ethanol) (mobile phase A: 0.1% formic acid in H2O) at a constant flowrate of 12 μl/min. The eluting proteins were analyzed by a high-resolution quadrupole-time of flight (q-TOF) mass spectrometer (Impact II, Bruker Daltonics) via electrospray ionization. The mass spectra were collected at a scan rate of 0.5 Hz for all samples being analyzed. Analyses of top-down mass spectra were performed using the vender-specific software DataAnalysis 3.2 (Bruker Daltonics).
Quantification of the sarcomeric protein isoforms was performed as previously described. […] The area under curve (AUC) of the EIC of a specific protein isoform represents the abundance of the selected protein isoform. […] Relative quantification of protein isoform expression was measured by the ratio of the AUCs.

Regarding polyinosinic-polycytidylic acid [pI:C], the “fraction of cells in the G2/S phase of the cell cycle” value in experiment [1] is reported as “increased”. Also, the results for the “increase in yield of cardiomyocytes” value in experiment [2] (replated at high reseeding density) and in experiment [2] (replated at lower density) were 4 fold and 6 fold, respectively. Also, in experiment [3] (day 30 cardiomyocytes), the “ratio of adult to fetal cTnT isoforms” value is “increased the ratio of adult to fetal isoforms”. The “adult to fetal cTnT isoform ratio and relative difference treated vs untreated” value in experiment [3] (prolonged culture to day 122) was “increased dramatically”.
